In ChEMBL document CHEMBL5126507, “P2Y12 antagonists: Approved drugs, potential naturally isolated and synthesised compounds, and related in-silico studies” (Eur J Med Chem, 2022):

Legend:
[1] = Antiplatelet activity in human platelet rich plasma assessed as inhibition of ADP-induced platelet aggregation preincubated for 5 mins followed by ADP addition and measured after 5 mins; format: functional, cell-based
P2Y purinoceptor 12 [2] = molecular target: T1, P2Y purinoceptor 12 (Homo sapiens, UniProt Q9H244); test: Displacement of [3H]2MeSADP from human P2Y12 expressed in U2OS cell membranes incubated for 60 mins by scintillation counting method; design: species or system Membrane
T1 sequence (Q9H244 whole entry): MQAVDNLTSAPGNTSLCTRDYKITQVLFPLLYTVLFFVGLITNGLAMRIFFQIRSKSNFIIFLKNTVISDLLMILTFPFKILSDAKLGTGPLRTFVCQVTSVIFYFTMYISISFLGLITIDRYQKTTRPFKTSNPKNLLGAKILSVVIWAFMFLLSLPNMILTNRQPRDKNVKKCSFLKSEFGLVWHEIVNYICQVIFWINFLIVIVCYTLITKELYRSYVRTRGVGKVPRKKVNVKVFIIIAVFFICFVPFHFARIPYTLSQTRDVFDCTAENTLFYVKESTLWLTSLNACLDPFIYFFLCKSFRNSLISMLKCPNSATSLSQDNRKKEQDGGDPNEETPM

P2Y purinoceptor 12 [3] = molecular target: T1, P2Y purinoceptor 12; test: Binding affinity to human P2Y12 expressed in astrocytoma cells; format: cell-based, Astrocyte
[4] = Antiplatelet activity in human platelet rich plasma assessed as inhibition of ADP-induced platelet aggregation preincubated for 2 mins followed by ADP addition and measured after 6 mins by Born method; format: functional, cell-based
Blood [5] = test: Ex vivo inhibition of platelet aggregation in Sprague-Dawley rat blood at 10 mg/kg, po measured after 2 hrs; format: functional; design: scale not given: the % may be the effect or the level left
Blood [6] = test: Ex vivo inhibition of platelet aggregation in Sprague-Dawley rat blood at 3 mg/kg, iv measured after 2 hrs; format: functional; design: scale not given: the % may be the effect or the level left
Blood [7] = test: Ex vivo inhibition of platelet aggregation in Sprague-Dawley rat blood at 1 mg/kg, iv measured after 2 hrs; format: functional
[8] = Antiplatelet activity in human platelet rich plasma assessed as inhibition of ADP-induced platelet aggregation preincubated for 1 min followed by ADP addition and measured after 6 to 8 mins by Born method; format: functional, cell-based
[9] = Antiplatelet activity in rat platelet rich plasma assessed as inhibition of ADP-induced platelet aggregation preincubated for 1 min followed by ADP addition and measured after 6 mins by Born method; format: functional, cell-based
Blood [10] = test: Ex vivo inhibition of platelet aggregation in Sprague-Dawley rat blood at 3 mg/kg, po measured after 2 hrs; format: functional
[11] = Antiplatelet activity in human platelet rich plasma assessed as inhibition of ADP-induced platelet aggregation preincubated for 2 mins followed by ADP addition for 5 mins; format: functional, cell-based
Blood [12] = test: Ex vivo inhibition of platelet aggregation in Sprague-Dawley rat blood at 3 mg/kg, iv measured after 30 mins; format: functional; conditions: 0.5 h
Rattus norvegicus = organism: Rattus norvegicus; test: Anti-platelet aggregation activity in Sprague-Dawley rat assessed as reduction in bleeding time; format: functional
P2Y purinoceptor 12 [13] = molecular target: T1, P2Y purinoceptor 12; test: Displacement of tritium-labeled 2MeSADP from human P2Y12 expressed in CHO cells measured after 2 hrs by scintillation counting method; format: cell-based
P2Y purinoceptor 12 [14] = molecular target: T1, P2Y purinoceptor 12; test: Displacement of [3H]2MeSADP from P2Y12 (unknown origin)
[15] = Antiplatelet activity in human platelet rich plasma assessed as inhibition of ADP-induced platelet aggregation preincubated for 5 mins followed by ADP addition and measured after 20 mins by microplate reader analysis; format: functional, cell-based
[16] = Antiplatelet activity in human platelet rich plasma assessed as inhibition of CaCl2/fibrinogen-induced platelet aggregation preincubated for 5 mins followed by CaCl2/fibrinogen addition by microplate reader analysis; format: functional, cell-based
P2Y purinoceptor 12 [17] = molecular target: T1, P2Y purinoceptor 12; test: Inhibition of 2-MeS-ADP induced P2Y12 (unknown origin) signalling expressed in CHO cells membrane incubated for 45 mins by 35S-GTPgammaS assay; format: functional, cell membranes

For `COc1cc(/C=C/c2cc(O)cc(O)c2)ccc1O`, the IC50 [1] was 1850 nM.

Work on `O=C(/C=C/c1ccc(O)c2c1[C@H](C(=O)O[C@H](Cc1ccc(O)c(O)c1)C(=O)O)[C@@H](c1ccc(O)c(O)c1)O2)O[C@H](Cc1ccc(O)c(O)c1)C(=O)O` yielded a Ki (P2Y purinoceptor 12 [2]) of 36400 nM.

With `Cc1cc(C)cc(Nc2cc(S(=O)(=O)O)c(N)c3c2C(=O)c2ccccc2C3=O)c1` the Ki (P2Y purinoceptor 12 [3]) was 63 nM.

Compound `Cc1c(N)cccc1Nc1cc(S(=O)(=O)O)c(N)c2c1C(=O)c1ccccc1C2=O` has a Ki (P2Y purinoceptor 12 [3]) of 25 nM.

For `O=C(O)CC[C@H](NC(=O)c1cc(OCC(=O)N2CCC[C@H]2C(=O)NC2CCC2)n(-c2ccccc2)n1)C(=O)N1CCN(C(=O)OC2CCC2)CC1`, the IC50 [4] was no more than 11 nM.

Compound `CCOC(=O)N1CCN(C(=O)[C@H](CCC(=O)O)NC(=O)c2cc(OCC(=O)N3CCC[C@H]3C(=O)NC3CC3)n(-c3ccccc3)n2)CC1` has an IC50 [4] of no more than 11 nM.

Compound `CCOC(=O)N1CCN(C(=O)[C@H](CCC(=O)O)NC(=O)c2cc(OCC(=O)N3CCC[C@H]3C(=O)NC3CCCC3)n(-c3ccccc3)n2)CC1` has an IC50 [4] of no more than 11 nM.

In the case of `CCCC(=O)c1cnn(-c2ccc(NC(=O)c3cn(CC(=O)N4CCN(C)CC4)c4ccc(Cl)cc34)nn2)c1C`, the Activity (Blood [5]) is reported as 73.5% and the Activity (Blood [6]) is reported as 79%.

Compound `CCCC(=O)c1cnn(-c2cnc(NC(=O)c3cn(CC(=O)N4CCN(C)CC4)c4ccc(Cl)cc34)cn2)c1C` has an inhibition in vivo at 1 mg/kg (Blood [7]) of 86.3% and an Activity (Blood [5]) of 76%.

Compound `CCCC(=O)c1cnn(C2CCN(NC(=O)c3cn(CC(=O)N4CCN(C)CC4)c4ccc(Cl)cc34)CC2)c1C` has an inhibition in vivo at 1 mg/kg (Blood [7]) of 88%, an IC50 [8] of 25 nM and an IC50 [9] of 43 nM. It also gave an inhibition in vivo at 3 mg/kg (Blood [10]) of 72%.

In the case of `Cc1cc(Nc2ccc(Nc3ccccc3)c(S(=O)(=O)O)c2)c2c(c1N)C(=O)c1ccccc1C2=O`, the Ki (P2Y purinoceptor 12 [3]) is reported as 51 nM.

Work on `CCCCOC(=O)N1CCN(C(=O)[C@H](CP(=O)(OCOC(=O)OC(C)C)OCOC(=O)OC(C)C)NC(=O)c2cc(N3CC[C@H](OC)C3)nc(-c3ccccc3)n2)CC1` yielded an IC50 [11] of 8 nM.

`CCCC(=O)c1cnn(C2CCC(NC(=O)c3cn(CC(=O)N4CCN(C)CC4)c4ccc(Cl)cc34)CC2)c1C` (stereo not given) showed an inhibition in vivo at 3 mg/kg (Blood [12]) of 79%, an IC50 [8] of 270 nM and an IC50 [9] of 91 nM. The inhibition in vivo at 3 mg/kg (Blood [10]) was 42.8%.

Compound `COC(=O)C(c1ccccc1Cl)N1CCc2sc(OC(=O)C(N)CC(C)C)cc2C1.Cl` (stereo not given) has an ED50 (Rattus norvegicus) of 2.16 mg/kg.

Compound `CCCCOC(=O)N1CCN(C(=O)[C@H](CCC(=O)O)NC(=O)c2nc(-c3ccccc3)sc2N2CC[C@H](OC)C2)CC1` has an IC50 (P2Y purinoceptor 12 [13]) of 1 nM.

Compound `C[C@H]([C@@H](O)[C@H](O)[C@@H](C)C(C)(C)C)[C@H]1CC[C@H]2[C@@H]3CC[C@H]4C[C@@H](OS(=O)(=O)O)[C@H](OS(=O)(=O)O)C[C@]4(C)[C@H]3CC[C@]12C` has an IC50 (P2Y purinoceptor 12 [14]) of 2200 nM.

`CCCCOC(=O)N1CCN(C(=O)[C@H](CP(=O)(O)O)NC(=O)c2csc(-c3ccccc3)n2)CC1` gave an IC50 (P2Y purinoceptor 12 [13]) of 1 nM.

With `CCOC(=O)N1CCN(C(=O)[C@H](CCC(=O)O)NC(=O)c2cc(OCC(=O)N[C@@H](C)C(=O)O)n(-c3ccccc3)n2)CC1` the IC50 [15] was 1480 nM.

`CCOC(=O)N1CCN(C(=O)[C@H](CCC(=O)O)NC(=O)c2cc(OCC(=O)N3CCC[C@H]3C(=O)NCC(F)(F)F)n(-c3ccccc3)n2)CC1` showed an IC50 [4] of no more than 11 nM.

Compound `C[C@H](CC[C@@H](C)C(C)(C)C)[C@H]1CC[C@H]2[C@@H]3C[C@H](OS(=O)(=O)O)[C@H]4C[C@@H](OS(=O)(=O)O)[C@H](OS(=O)(=O)O)C[C@]4(C)[C@H]3CC[C@]12C` has an IC50 (P2Y purinoceptor 12 [14]) of 480 nM.

`CCCSc1nc(N[C@@H]2C[C@H]2c2ccccc2)c2nnn([C@@H]3C=C[C@H](OCC(=O)O)[C@@H](O)[C@H]3O)c2n1` gave an IC50 [16] of 2910 nM.

`CCCC(=O)c1cc(C#N)c(N(C(=O)C2CCNCC2)S(=O)(=O)Cc2cccc(F)c2)nc1C` showed an IC50 (P2Y purinoceptor 12 [17]) of 100 nM.
